We go through 15 molecules from PubChem BioAssay (NCI).

Holding throughout (test): NCI tumour cell line growth inhibition, 48 h
The subject of experiment [1] is UACC-257 melanoma.
Experiment [2] relates to M14 melanoma.
Experiment [3] has as its system EKVX NSCLC.
Experiment [4] concerns OVCAR-5 ovarian.
The subject of experiment [5] is OVCAR-8 ovarian.
In experiment [6] the test system is SW-620 colon.
Experiment [7] deals with RXF 393 renal.
The test system of experiment [8] is SR leukemia.
The subject of experiment [9] is NCI/ADR-RES ovarian.

The structures appear in SMILES notation.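 Where inhibition never reached the appropriate level, the endpoint shown equals the highest concentration tested. Otherwise, values were interpolated linearly from a five-concentration, 48-hour dose response in 96-well plates. Here, GI50 denotes the concentration required for 50% inhibition of growth. At the TGI there is no net growth.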

With `CC(=O)Oc1cc2c(cc1OC(C)=O)C1(C)CCC2(C)c2cc(OC(C)=O)c(OC(C)=O)cc21`, the TGI in experiment [1] was 40.4 µM; in [2], 90.5 µM; in experiment [3], over 100 µM; in experiment [4] it was 80.9 µM; in [5] it was over 100 µM; in experiment [6], 63.4 µM. Moreover, the TGI in experiment [7] was over 100 µM.

On to `COC(=O)C(=O)CC(=O)CCn1[nH]c(=O)c(Cl)c(Cl)c1=O`, for which the TGI in experiment [1], in [2], in experiment [3], in experiment [4], in [5] and in [6] was over 100 µM each time. In [7], this molecule yielded a TGI of over 100 µM.

Consider `CCC[CH2][Sn]([CH2]CCC)([O]C(=O)CN)[O]C(=O)CN`, for which the GI50 in experiment [1] is 50.4 µM; in experiment [2], 36.7 µM; in experiment [3] it was 16 µM; in experiment [4] it was over 100 µM; in [8], 22.9 µM; in experiment [5], 69 µM. Further, the results for the GI50 in experiment [6] and in [7] were 18.1 µM and 16.2 µM, respectively. The TGI in experiment [1] is over 100 µM; in experiment [2] it was over 100 µM; in [3], 51.2 µM; in experiment [4], over 100 µM; in experiment [8] it was 95.6 µM; in [5], over 100 µM. The TGI came out at 37 µM in [6] and 44.3 µM in experiment [7].

In the case of `CC(=O)c1ccc(NC(=O)/C(CC(=O)c2sc(-c3cccnc3)nc2C)=N/NC(N)=O)cc1`, the TGI in experiment [2], in [4], in [8], in [5] and in experiment [6] was over 100 µM each time.

On to `O=C(Nc1ccc(Cl)cc1)C1C(=O)C(=O)N(c2ccc(Cl)cc2)C1=O` (stereo not drawn), for which the TGI in experiment [2], in experiment [3], in experiment [4], in [8], in experiment [5] and in experiment [6] was over 100 µM in each case. In addition, the TGI in experiment [7] is over 100 µM.

On to `Cc1ccc(S(=O)(=O)N/N=C2\CCCCC23CCC(=O)NC3)cc1` (stereo not drawn), for which the TGI in [1], in experiment [2], in [8], in experiment [5], in experiment [6] and in experiment [7] was over 100 µM in each case.

For `N/N=C\c1c2ccccc2c(=O)n2c1oc1ccccc12`, the GI50 in experiment [1] is 17.3 µM; in experiment [2] it was 27.3 µM; in experiment [3], 10.2 µM; in [4], 18.4 µM; in [8] it was 5.61 µM; in [5], 19.4 µM. For the same molecule, the GI50 was 16.9 µM in experiment [9], 15.1 µM in [6] and 20 µM in [7]. For the same molecule, the TGI in experiment [1] amounted to 39 µM; in experiment [2], 83.6 µM; in experiment [3] it was 26.2 µM; in experiment [4] it was 34.8 µM; in [8], 26 µM; in experiment [5], 49.4 µM. The TGI in experiment [9] is 38.1 µM; in experiment [6], 32.5 µM; in experiment [7], 52.5 µM.

In the case of `COc1ccc([C@@]2(O)c3c(ccc(O)c3OC)[C@H]2OC)c(OC)c1`, the TGI in experiment [1], in [2], in [3], in experiment [4], in experiment [8] and in experiment [5] was over 100 µM each time. The TGI in [6] is over 100 µM.

Turning to `N#C/C(=C/c1cccc(Oc2ccccc2)c1)c1ccccc1`, the TGI in experiment [1], in experiment [2], in [3], in [4], in experiment [8] and in [5] was over 100 µM in each case. The molecule further had a TGI in experiment [6] of over 100 µM.

As to `COc1cc(NS(=O)(=O)c2ccc(C)cc2)c2nccnc2c1`, the TGI is over 100 µM in experiment [1]; 35.1 µM in experiment [2]; over 100 µM in experiment [3]; over 100 µM in [4]; over 100 µM in experiment [8]; over 100 µM in experiment [5]. In addition, the TGI is over 100 µM in experiment [6] and 64.7 µM in experiment [7].

Take `NC1=NN(c2ccccc2)C(=O)C1C(=O)CCC(=O)Nc1cccc(Cl)c1` (stereo not drawn): the TGI in experiment [1], in [2], in experiment [3], in experiment [4], in experiment [5] and in experiment [6] was over 100 µM in each case. Also, in [7], the TGI was over 100 µM.

Consider `Cc1ccc(S(=O)(=O)OC2CC=CC2)cc1`, for which the TGI in experiment [1], in [2], in [3], in [4], in experiment [5] and in [6] was over 100 µM each time. Also, the TGI in experiment [7] was over 100 µM.

In the case of `COc1ccc(C=O)cc1O[Si](C)(C)C(C)(C)C`, the TGI in experiment [1], in [2], in experiment [3], in [4], in [5] and in experiment [6] was over 100 µM each time. In [7], this molecule yielded a TGI of over 100 µM.

For the molecule `N#CCC(=O)N/N=C1/C(=O)N(c2ccc(Cl)cc2)C(=O)C(=O)C1c1nc2ccccc2s1` (stereo not drawn), the TGI in [1], in experiment [2], in [3], in experiment [4], in [5] and in experiment [6] was over 100 µM in each case. The TGI in experiment [7] is over 100 µM.

As for `COc1cc(Nc2ncccc2C(=O)Nc2nc3ccc(F)cc3s2)cc(OC)c1OC`, the GI50 in experiment [2] is 3.08 µM; in experiment [3], 2.7 µM; in experiment [4], 25.6 µM; in [8], 2.97 µM; in experiment [5], 3.62 µM; in experiment [9], 2.92 µM. Besides, the TGI in [2], in [3], in experiment [4], in experiment [8], in experiment [5] and in experiment [9] was over 100 µM in each case.
